Results reported in US8748373B2, “Hepatitis B virus compositions and methods of use” (priority 2007, dated 2014).

Columns and labels:
[1] = tested on: HBV; settings: patients chronically infected with HBV; cited from earlier work
[2] = tested on: HDV; assay: Inhibition of HDV infection of primary human hepatocytes, antigenomic HDV RNA by real-time PCR; assay type: cell-based; settings: for Inhibition of HDV replication: 50 nM final concentration, primary human hepatocytes, 7 days
Excerpt: (§1) In order to test inhibitory activity of the IA and related proteins, primary human hepatocytes infected in the presence of 5% polyethylene glycol 8000 (Sigma) were used with in vitro assembled HDV at a multiplicity of 10 genome equivalents (GE) per cell, or by HBV at a multiplicity of 50 GE/cell. […] One related protein was the S1S2, lacking the Fc domain (FIG. 1B). Another was a synthetic peptide corresponding to positions 2-48 of the ayw PreS1, with myristoylation at the N terminal glycine as described in Engelke, et al., 2006, Hepatology, 43:750-760. After 7-8 days total, cell RNA was extracted and HDV antigenomic RNA and HBV RNA were quantitated using real-time PCR.
Others have shown that peptides based on the N terminus of HBV preS1 are able to interfere with infection of primary hepatocytes and of HepaRG cells, a cell line made from a differentiated liver tumor (Gripon, et al., 2005, J. Virol., 79:1613-1622, Gripon, et al., 2002, Proc. Natl. Acad. Sci., USA 99:15655-15660). […] Secreted IAs were tested for their ability to interfere with the infection of primary human hepatocytes by HDV. For these studies the source of IA was simple dilutions of the media from transiently transfected cells that both expressed and secreted the IA. To assess HDV replication the total RNA was extracted after 7 days and antigenomic RNA was quantitated by real-time PCR.

[3] = Ultracentrifugation of media to test whether released IA is a soluble protein; assay type: physicochemical; settings: conditions that pellet HDV and HBV subviral particles
Excerpt: In addition, experiments were designed to tested whether the released IA was actually a soluble protein. Media samples containing albumin and secreted […] were clarified by low speed centrifugation and then subjected to ultracentrifugation, using conditions that pellet HDV and HBV subviral particles. It was observed that about >85% of the albumin and S1S2-IA remained in the supernatant. Without wishing to be bound by any particular theory, it is believed that because the IAs behaved similar to albumin, than IAs were soluble proteins.

[4] = tested on: HBV; assay: Inhibition of HBV infection of primary human hepatocytes, HBV RNA by real-time PCR; assay type: cell-based, Hepatitis B virus
Excerpt: as §1
In parallel with the experiment shown in FIG. 4B, experiments were designed to determined whether S1S2-IA would also act on HBV infection.

[5] = tested on: HBV; settings: in vivo; cited from earlier work

## C=C1[C@H](CO)[C@@H](O)C[C@@H]1n1cnc2c(=O)[nH]c(N)nc21 [Entecavir]
[1]
  Suppression of HBV levels in serum: 100,000 fold

## S1-IA: immunoadhesin: HBV preS1 domain (1-119, adw2) fused N terminally to Fc region of a rabbit IgG heavy chain
[2]
  Inhibition of HDV replication: 90%

## S1S2-IA: immunoadhesin: HBV preS1 plus preS2 domains fused to Fc region of a rabbit IgG heavy chain
[3]
  Fraction remaining in the supernatant after ultracentrifugation: > 85%
[4]; parallel experiments
  Inhibition of HBV infection compared with HDV infection: not significantly different
[4]; primary human hepatocytes, HBV RNA
  Inhibition of HBV infection: there was inhibition
[2]
  Inhibition of HDV replication: 90%
[2]; pretreatment in addition to treatment during infection
  Effect of 30 minute pretreatment on level of inhibition of HDV: did not significantly increase the level of inhibition

## acylated peptide: synthetic peptide corresponding to positions 2-48 of the ayw PreS1, with myristoylation at the N terminal glycine [reference compound]
[2]; primary human hepatocytes, 2, 10 and 50 nM
  Inhibition of HDV replication compared with S1-IA and S1S2-IA: more inhibition than the two IA

## α-interferon
[5]
  Patients in whom effective: about 33%
